Entries after “also recorded” stand apart in the source; their conditions may differ.
Experiments:
wild type mice = experiment: Touch sensitivity (Von Frey filaments) after injection in the Zusanli point of wild type mice; assay type: in vivo; details: 5 mM injected in Zusanli point, tested one hour after injection
Method: Using Von Frey Filaments, a baseline for pain threshold was established in the wild type. The mice were then injected with 5 mM of dibut 1-cAMP (db-cAMP) in the zunsanli accu-point. To ensure the proper spread of db cAMP, the mice were tested for pain one hour after injections and assessed for touch sensitivity. The experiment was repeated in the same animals 24 h later and yielded similar results.
Mechanical allodynia was evaluated using repeated stimulations with a Von Frey filament exerting 0.02 grams of force onto the plantar surface (Colburn et al., “The Effect of Site and Type of Nerve Injury on Spinal Glial Activation and Neuropathic Pain Behavior,” Exp. Neurol. 157:289-304. (1999), which is hereby incorporated by reference in its entirety). The percentage of negative responses of a total of 10 trials was calculated for each foot. Thermal hyperalgesia was assessed using an Analgesymeter (Ugo Basile, Comerio, Italy) (Stein et al., “Intrinsic Mechanisms of Antinociception in Inflammation: Local Opioid Receptors and Beta-Endorphin,” J. Neurosci. 10:1292-1298 (1990), which is hereby incorporated by reference in its entirety). […] The paw withdrawal was repeated three times for each foot and the average calculated. […]

AMP deaminase = experiment: HPLC analysis of AMP degradation in muscle/subcutis sections from the Zusanli point; assay type: biochemical, mice; details: 200 μM, tissue incubated in 1 mM AMP for 45 min
Method: The analysis of enzymatic degradation of purines was based on sections (400 μm) of skeletal muscles with overlying subcutis harvested from tissue in the Zusanli point. Each section per well was placed into a 6-well plate with 2 ml (in a phosphate-free buffer (in mM: 2 CaCl2, 120 NaCl, 5 KCL, 10 Glucose, 20 HEPES, pH=7.3) and bubble with 100% O2 containing 1 mM AMP with or without 500 μM deoxycoformycin (Tocris Bioscience, UK). The samples were collected from each well at 0 and 45 min and stored at −80° C. for HPLC analysis. The analyses were carried out on an ESA reverse-phase H584 HPLC system (ESA Inc., USA) and an ESA model 526 UV detector (ESA Inc.) as previously described (Cui et al., “The Organic Cation Transporter-3 is a Pivotal Modulator of Neurodegeneration in the Nigrostriatal Dopaminergic Pathway,” Proc. Nat'l. Acad. Sci. USA 106:8043-8048 (2009); Volonte et al., “Development of an HPLC Method for Determination of Metabolic Compounds in Myocardial Tissue,” J. Pharm. Biomed. Anal. 35:647-653 (2004), which are hereby incorporated by reference in their entirety). Chromatographic separation was achieved by using a Lichrospher® 100 RP-18 column (5 μm, 250 mm×3 mm; Merck, Germany). […] Eluted purines were detected at 260 nm, and the chromatographic peaks were integrated using CoulArray software.

[1] = tested on: inflammatory pain, rat formalin test; details: local injection; cited from earlier work
[2] = tested on: mice with inflammatory pain (CFA); experiment: Inflammatory pain (CFA in paw): mechanical allodynia (Von Frey) and thermal hyperalgesia; assay type: in vivo
Text: Peripheral inflammation was induced by injection of Complete Freud Adjuvant (CFA, mixed with an equal amount of oil, […], Jackson labs) (Raghavendra et al., “Complete Freunds Adjuvant-Induced Peripheral Inflammation Evokes Glial Activation and Proinflammatory Cytokine Expression in the CNS,” Eur. J. Neurosci. 20:467-473 (2004), which is hereby incorporated by reference in its entirety). […] Neuropathic pain was induced by ligation of the sciatic nerve with 4.0 polypropylene suture in mice sedated with ketamine (60 mg/kg, i.p.) and xylazine (10 mg/kg, i.p.) (Bennett et al., “A Peripheral Mononeuropathy in Rat that Produces Disorders of Pain Sensation Like Those Seen in Man,” Pain 33:87-107 (1988); Martucci et al., “The Purinergic Antagonist PPADS Reduces Pain Related Behaviours and Interleukin-1 beta, Interleukin-6, iNOS and nNOS Overproduction in Central and Peripheral Nervous System After Peripheral Neuropathy in Mice,” Pain 137:81-95 (2008), which are hereby incorporated by reference in their entirety).
Mechanical allodynia was evaluated using repeated stimulations with a Von Frey filament exerting 0.02 grams of force onto the plantar surface (Colburn et al., “The Effect of Site and Type of Nerve Injury on Spinal Glial Activation and Neuropathic Pain Behavior,” Exp. Neurol. 157:289-304. (1999), which is hereby incorporated by reference in its entirety). The percentage of negative responses of a total of 10 trials was calculated for each foot. Thermal hyperalgesia was assessed using an Analgesymeter (Ugo Basile, Comerio, Italy) (Stein et al., “Intrinsic Mechanisms of Antinociception in Inflammation: Local Opioid Receptors and Beta-Endorphin,” J. Neurosci. 10:1292-1298 (1990), which is hereby incorporated by reference in its entirety). In short, a mobile radiant heat source was focused on the hind paw, and the paw withdrawal latencies were defined as the time taken by the mouse to remove its hind paw from the heat source (max 20 sec to avoid tissue damage). The paw withdrawal was repeated three times for each foot and the average calculated. To avoid conditioning to stimulation a 5 min rest period was interposed between each trial in both thermal and mechanical tests. Behavioral parameters were evaluated prior to intraplantar injection of CFA or nerve ligation (i.e. day 0), and again on day 3-4 in mice receiving the CFA injection, and at day 5-7 in mice with nerve ligation unless otherwise noted. Prior to injection of CCPA, saline, or acupuncture in the Zusanli point, the mice were placed in a restraining under light isoflurane anesthesia (˜1%). The total duration of anesthesia was ˜2 min and mice with inflammatory, neurogenic pain, and their controls were treated similarly. 2-chloro-N6-cyclopentyl-adenosine (CCPA, 0.1 mM, 20 μl) was injected in the Zusanli point ˜5 min before acupuncture. […] The needle was slowly rotated ˜2 time (˜20-30 sec) every 5 min for a total of 30 min during an acupuncture session. A microdialysis probe (MD-2211, Bioanalytical systems, West Lafayette, Ind.) was implanted 1-3 hrs prior to collection of microdialysis samples. The microdialysis probe was implanted in a distance of 0.4-0.6 mm from the Zusanli point. The microdialysis probe was perfused with Ringer's solution at a rate of 1 μl per minute. The microdialysates were collected on ice and the perfusate collected over a 30 min period (30 μl) was immediately frozen at −80° C. until HPLC analysis. Deoxycoformycin was administered in a dose of 50 mg/kg i.p. 30 min prior to acupuncture.

[3] = tested on: mice with inflammatory or neuropathic pain; experiment: Statements covering both inflammatory and neuropathic pain models; assay type: in vivo; details: 50 mg/kg i.p. 30 min prior to 30 min acupuncture; vehicle + acupuncture ~[…]
Method: Peripheral inflammation was induced by injection of Complete Freud Adjuvant (CFA, mixed with an equal amount of oil, total volume 0.1 ml) in the plantar surface of the left hind paw of mice (25-30 g, Jackson labs) (Raghavendra et al., “Complete Freunds Adjuvant-Induced Peripheral Inflammation Evokes Glial Activation and Proinflammatory Cytokine Expression in the CNS,” Eur. J. Neurosci. 20:467-473 (2004), which is hereby incorporated by reference in its entirety). An equal amount of saline (0.1 ml) was injected in the right hind paw as control. […]
Mechanical allodynia was evaluated using repeated stimulations with a Von Frey filament exerting 0.02 grams of force onto the plantar surface (Colburn et al., “The Effect of Site and Type of Nerve Injury on Spinal Glial Activation and Neuropathic Pain Behavior,” Exp. Neurol. 157:289-304. (1999), which is hereby incorporated by reference in its entirety). The percentage of negative responses of a total of 10 trials was calculated for each foot. Thermal hyperalgesia was assessed using an Analgesymeter (Ugo Basile, Comerio, Italy) (Stein et al., “Intrinsic Mechanisms of Antinociception in Inflammation: Local Opioid Receptors and Beta-Endorphin,” J. Neurosci. 10:1292-1298 (1990), which is hereby incorporated by reference in its entirety). […] The paw withdrawal was repeated three times for each foot and the average calculated. […] Behavioral parameters were evaluated prior to intraplantar injection of CFA or nerve ligation (i.e. day 0), and again on day 3-4 in mice receiving the CFA injection, and at day 5-7 in mice with nerve ligation unless otherwise noted. […]

[4] = tested on: mice with neuropathic pain; experiment: Neuropathic pain (sciatic nerve ligation): mechanical allodynia and thermal hyperalgesia; assay type: in vivo; details: WT mice, combined with acupuncture
Method: Peripheral inflammation was induced by injection of Complete Freud Adjuvant (CFA, mixed with an equal amount of oil, total volume 0.1 ml) in the plantar surface of the left hind paw of mice (25-30 g, Jackson labs) (Raghavendra et al., “Complete Freunds Adjuvant-Induced Peripheral Inflammation Evokes Glial Activation and Proinflammatory Cytokine Expression in the CNS,” Eur. J. Neurosci. 20:467-473 (2004), which is hereby incorporated by reference in its entirety). An equal amount of saline (0.1 ml) was injected in the right hind paw as control. Neuropathic pain was induced by ligation of the sciatic nerve with 4.0 polypropylene suture in mice sedated with ketamine (60 mg/kg, i.p.) and xylazine (10 mg/kg, i.p.) (Bennett et al., “A Peripheral Mononeuropathy in Rat that Produces Disorders of Pain Sensation Like Those Seen in Man,” Pain 33:87-107 (1988); Martucci et al., “The Purinergic Antagonist PPADS Reduces Pain Related Behaviours and Interleukin-1 beta, Interleukin-6, iNOS and nNOS Overproduction in Central and Peripheral Nervous System After Peripheral Neuropathy in Mice,” Pain 137:81-95 (2008), which are hereby incorporated by reference in their entirety).
Mechanical allodynia was evaluated using repeated stimulations with a Von Frey filament exerting 0.02 grams of force onto the plantar surface (Colburn et al., “The Effect of Site and Type of Nerve Injury on Spinal Glial Activation and Neuropathic Pain Behavior,” Exp. Neurol. 157:289-304. (1999), which is hereby incorporated by reference in its entirety). The percentage of negative responses of a total of 10 trials was calculated for each foot. Thermal hyperalgesia was assessed using an Analgesymeter (Ugo Basile, Comerio, Italy) (Stein et al., “Intrinsic Mechanisms of Antinociception in Inflammation: Local Opioid Receptors and Beta-Endorphin,” J. Neurosci. 10:1292-1298 (1990), which is hereby incorporated by reference in its entirety). In short, a mobile radiant heat source was focused on the hind paw, and the paw withdrawal latencies were defined as the time taken by the mouse to remove its hind paw from the heat source (max 20 sec to avoid tissue damage). The paw withdrawal was repeated three times for each foot and the average calculated. To avoid conditioning to stimulation a 5 min rest period was interposed between each trial in both thermal and mechanical tests. Behavioral parameters were evaluated prior to intraplantar injection of CFA or nerve ligation (i.e. day 0), and again on day 3-4 in mice receiving the CFA injection, and at day 5-7 in mice with nerve ligation unless otherwise noted. Prior to injection of CCPA, saline, or acupuncture in the Zusanli point, the mice were placed in a restraining under light isoflurane anesthesia (˜1%). […]

Row | reduction of AMP conversion to IMP (AMP deaminase) [%] | reduction of AMP conversion to IMP (AMP deaminase; listed as Deoxycoformycin) | SMILES | sensitivity to touch (wild type mice) | pain relief on co-administration with an adenosine kinase inhibitor [1] | tactile or thermal sensitivity when not combined with acupuncture ([2]; CFA, no acupuncture) | effect on duration of acupuncture pain relief, mechanical and thermal stimulation ([2]; WT mice, combined with acupuncture) | duration of suppression of mechanical allodynia and thermal pain [3] [h] | effect on duration of acupuncture pain relief, mechanical and thermal stimulation [4]
1 | – | – | CCCC(=O)Nc1ncnc2c1ncn2[C@@H]1O[C@@H]2COP(=O)(O)O[C@H]2[C@H]1OC(=O)CCC [dibutyryl cAMP] | increased transiently | – | – | – | – | –
2 | ~50 | approximately 50% | OC[C@H]1O[C@@H](n2cnc3c2NC=NC[C@H]3O)C[C@@H]1O [deoxycoformycin] | – | augmented the pain relief | does not alter the pain sensitivity; also recorded: no effect | prolonged | ~3.0 | prolonged

— patent US20130005676A1 (UNIVERSITY OF ROCHESTER, priority 2009, published 2013)
